Measurements from US9062321B2 (priority 2004, dated 2015).

What was measured:
BuChE [1] = target: T1, BuChE (Homo sapiens, UniProt P06276); test: Sensitivity of BuChE to cholinesterase inhibitors (background); format: biochemical; conditions: ratio of Ki BuChE to Ki AChE
BuChE [2] = target: T1, BuChE; conditions: in words; cited from earlier work

T1 sequence (P06276 29-602): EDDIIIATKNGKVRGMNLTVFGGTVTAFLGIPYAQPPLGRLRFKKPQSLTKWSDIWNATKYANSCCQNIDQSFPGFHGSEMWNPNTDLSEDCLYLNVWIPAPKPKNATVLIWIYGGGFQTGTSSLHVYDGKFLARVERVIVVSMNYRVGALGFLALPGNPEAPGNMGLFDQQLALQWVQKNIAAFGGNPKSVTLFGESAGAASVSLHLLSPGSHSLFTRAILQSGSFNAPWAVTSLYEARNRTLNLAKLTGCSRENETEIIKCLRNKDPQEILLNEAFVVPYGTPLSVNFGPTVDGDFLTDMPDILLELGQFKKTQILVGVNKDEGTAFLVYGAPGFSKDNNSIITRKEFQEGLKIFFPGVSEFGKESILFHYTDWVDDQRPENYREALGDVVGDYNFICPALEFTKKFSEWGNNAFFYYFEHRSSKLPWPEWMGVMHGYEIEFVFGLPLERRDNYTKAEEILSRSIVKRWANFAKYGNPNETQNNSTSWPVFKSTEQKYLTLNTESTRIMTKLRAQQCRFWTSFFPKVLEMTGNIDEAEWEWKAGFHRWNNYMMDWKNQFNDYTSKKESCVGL

SMILES | difference in sensitivity of BuChE compared to AChE (BuChE [1]) | sensitivity of BuChE to the inhibitor compared with AChE (BuChE [2])
C=CC[N+](C)(C)c1ccc(CCC(=O)CCc2ccc([N+](C)(C)CC=C)cc2)cc1 [BW284c51, 1,5-bis(4-allyldimethylammoniumphenyl)pentan-3-one dibromide] | 1400 fold | 
CC(C)NP(=O)(NC(C)C)OP(=O)(NC(C)C)NC(C)C [Iso-OMPA, tetraisopropyl pyrophosphoramide] |  | much more sensitive
